Results taken from PubChem BioAssay (NCI).
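In this assay, cells in 96-well plates receive the compound at five concentrations for 48 hours. Endpoints are linearly interpolated between the surrounding concentrations. GI50 is the concentration that inhibits growth by half. TGI is the concentration that stops growth completely.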

Experiments:
Assay in all cases: NCI-60 cell line screen, 48 h
786-0 renal = test system: 786-0 renal
A549 NSCLC = test system: A549 NSCLC
ACHN renal = test system: ACHN renal
BT-549 breast = test system: BT-549 breast
CAKI-1 renal = test system: CAKI-1 renal
COLO 205 colon = test system: COLO 205 colon
DU-145 prostate = test system: DU-145 prostate
EKVX NSCLC = test system: EKVX NSCLC
HCC-2998 colon = test system: HCC-2998 colon
HCT-116 colon = test system: HCT-116 colon
HCT-15 colon = test system: HCT-15 colon
HL-60(TB) leukemia = test system: HL-60(TB) leukemia
HOP-62 NSCLC = test system: HOP-62 NSCLC
HS 578T breast = test system: HS 578T breast
HT29 colon = test system: HT29 colon
IGROV1 ovarian = test system: IGROV1 ovarian
K-562 leukemia = test system: K-562 leukemia
KM12 colon = test system: KM12 colon
LOX IMVI melanoma = test system: LOX IMVI melanoma
M14 melanoma = test system: M14 melanoma
MALME-3M melanoma = test system: MALME-3M melanoma
MCF7 breast = test system: MCF7 breast
MDA-MB-231 breast = test system: MDA-MB-231 breast
MDA-MB-435 = test system: MDA-MB-435
MOLT-4 leukemia = test system: MOLT-4 leukemia
NCI-H226 lung = test system: NCI-H226 lung
NCI-H23 lung = test system: NCI-H23 lung
NCI-H460 lung = test system: NCI-H460 lung
NCI-H522 lung = test system: NCI-H522 lung
NCI/ADR-RES ovarian = test system: NCI/ADR-RES ovarian
OVCAR-3 ovarian = test system: OVCAR-3 ovarian
OVCAR-4 ovarian = test system: OVCAR-4 ovarian
OVCAR-5 ovarian = test system: OVCAR-5 ovarian
OVCAR-8 ovarian = test system: OVCAR-8 ovarian
PC-3 prostate = test system: PC-3 prostate
RPMI-8226 leukemia = test system: RPMI-8226 leukemia
RXF 393 renal = test system: RXF 393 renal
SF-268 CNS = test system: SF-268 CNS
SF-295 CNS = test system: SF-295 CNS
SF-539 CNS = test system: SF-539 CNS
SK-MEL-2 melanoma = test system: SK-MEL-2 melanoma
SK-MEL-28 melanoma = test system: SK-MEL-28 melanoma
SK-MEL-5 melanoma = test system: SK-MEL-5 melanoma
SK-OV-3 ovarian = test system: SK-OV-3 ovarian
SN12C renal = test system: SN12C renal
SNB-19 CNS = test system: SNB-19 CNS
SNB-75 CNS = test system: SNB-75 CNS
SR leukemia = test system: SR leukemia
SW-620 colon = test system: SW-620 colon
T-47D breast = test system: T-47D breast
TK-10 renal = test system: TK-10 renal
U251 CNS = test system: U251 CNS
UACC-257 melanoma = test system: UACC-257 melanoma
UACC-62 melanoma = test system: UACC-62 melanoma
UO-31 renal = test system: UO-31 renal
CCRF-CEM leukemia = test system: CCRF-CEM leukemia
HOP-92 NSCLC = test system: HOP-92 NSCLC

C/C(=C\CSCC(N)C(=O)O)CC/C=C(\C)CNc1ccccc1 (stereo not given)
TGI (786-0 renal): > 100 µM | TGI (A549 NSCLC): > 100 µM | TGI (ACHN renal): > 100 µM | TGI (BT-549 breast): > 100 µM | TGI (CAKI-1 renal): > 100 µM | TGI (COLO 205 colon): > 100 µM | TGI (DU-145 prostate): > 100 µM | TGI (EKVX NSCLC): > 100 µM | TGI (HCC-2998 colon): > 100 µM | TGI (HCT-116 colon): > 100 µM | TGI (HCT-15 colon): > 100 µM | TGI (HL-60(TB) leukemia): > 100 µM | TGI (HOP-62 NSCLC): > 100 µM | TGI (HS 578T breast): > 100 µM | TGI (HT29 colon): > 100 µM | TGI (IGROV1 ovarian): > 100 µM | TGI (K-562 leukemia): > 100 µM | TGI (KM12 colon): > 100 µM | TGI (LOX IMVI melanoma): > 100 µM | TGI (M14 melanoma): > 100 µM | TGI (MALME-3M melanoma): > 100 µM | TGI (MCF7 breast): > 100 µM | TGI (MDA-MB-231 breast): > 100 µM | TGI (MDA-MB-435): > 100 µM | TGI (MOLT-4 leukemia): > 100 µM | TGI (NCI-H226 lung): > 100 µM | TGI (NCI-H23 lung): > 100 µM | TGI (NCI-H460 lung): > 100 µM | TGI (NCI-H522 lung): > 100 µM | TGI (NCI/ADR-RES ovarian): > 100 µM | TGI (OVCAR-3 ovarian): > 100 µM | TGI (OVCAR-4 ovarian): > 100 µM | TGI (OVCAR-5 ovarian): > 100 µM | TGI (OVCAR-8 ovarian): > 100 µM | TGI (PC-3 prostate): > 100 µM | TGI (RPMI-8226 leukemia): > 100 µM | TGI (RXF 393 renal): > 100 µM | TGI (SF-268 CNS): > 100 µM | TGI (SF-295 CNS): > 100 µM | TGI (SF-539 CNS): > 100 µM | TGI (SK-MEL-2 melanoma): > 100 µM | TGI (SK-MEL-28 melanoma): > 100 µM | TGI (SK-MEL-5 melanoma): > 100 µM | TGI (SK-OV-3 ovarian): > 100 µM | TGI (SN12C renal): > 100 µM | TGI (SNB-19 CNS): > 100 µM | TGI (SNB-75 CNS): > 100 µM | TGI (SR leukemia): > 100 µM | TGI (SW-620 colon): > 100 µM | TGI (T-47D breast): > 100 µM | TGI (TK-10 renal): > 100 µM | TGI (U251 CNS): > 100 µM | TGI (UACC-257 melanoma): > 100 µM | TGI (UACC-62 melanoma): > 100 µM | TGI (UO-31 renal): > 100 µM

COc1ccc2nc3cc(Cl)ccc3c(Nc3cc(CN4CCCC4)c(O)c(CN4CCCC4)c3)c2n1
GI50 (786-0 renal): 1.87 µM | TGI (786-0 renal): 11.4 µM | GI50 (A549 NSCLC): 1.29 µM | TGI (A549 NSCLC): 22 µM | GI50 (ACHN renal): 1.69 µM | TGI (ACHN renal): 10.3 µM | GI50 (BT-549 breast): 2.46 µM | TGI (BT-549 breast): 5.66 µM | GI50 (CAKI-1 renal): 2.37 µM | TGI (CAKI-1 renal): 8.44 µM | GI50 (CCRF-CEM leukemia): 1.12 µM | TGI (CCRF-CEM leukemia): 4.03 µM | GI50 (COLO 205 colon): 1.18 µM | TGI (COLO 205 colon): 2.48 µM | GI50 (DU-145 prostate): 2.43 µM | TGI (DU-145 prostate): 13.6 µM | GI50 (EKVX NSCLC): 2.34 µM | TGI (EKVX NSCLC): 9.68 µM | GI50 (HCC-2998 colon): 1.25 µM | TGI (HCC-2998 colon): 2.91 µM | GI50 (HCT-116 colon): 1.04 µM | TGI (HCT-116 colon): 5.83 µM | GI50 (HCT-15 colon): 1.18 µM | TGI (HCT-15 colon): 10.6 µM | GI50 (HL-60(TB) leukemia): 2.07 µM | TGI (HL-60(TB) leukemia): 4.78 µM | GI50 (HOP-62 NSCLC): 1.38 µM | TGI (HOP-62 NSCLC): 4.91 µM | GI50 (HOP-92 NSCLC): 1.04 µM | TGI (HOP-92 NSCLC): 3.74 µM | GI50 (HT29 colon): 1.42 µM | TGI (HT29 colon): 10.5 µM | GI50 (IGROV1 ovarian): 2.51 µM | TGI (IGROV1 ovarian): 13.6 µM | GI50 (KM12 colon): 1.66 µM | TGI (KM12 colon): 10.9 µM | GI50 (LOX IMVI melanoma): 1.4 µM | TGI (LOX IMVI melanoma): 5.09 µM | GI50 (M14 melanoma): 1.62 µM | TGI (M14 melanoma): 2.97 µM | GI50 (MALME-3M melanoma): 1.83 µM | TGI (MALME-3M melanoma): 3.32 µM | GI50 (MCF7 breast): 1 µM | TGI (MCF7 breast): 8.34 µM | GI50 (MDA-MB-231 breast): 1.86 µM | TGI (MDA-MB-231 breast): 8.17 µM | GI50 (MDA-MB-435): 1.6 µM | TGI (MDA-MB-435): 3.07 µM | GI50 (MOLT-4 leukemia): 0.41 µM | TGI (MOLT-4 leukemia): 2.51 µM | GI50 (NCI-H226 lung): 1.55 µM | TGI (NCI-H226 lung): 3.24 µM | GI50 (NCI-H23 lung): 1.72 µM | TGI (NCI-H23 lung): 3.88 µM | GI50 (NCI-H460 lung): 0.638 µM | TGI (NCI-H460 lung): 2.49 µM | GI50 (NCI-H522 lung): 1.47 µM | TGI (NCI-H522 lung): 3.14 µM | GI50 (NCI/ADR-RES ovarian): 1.64 µM | TGI (NCI/ADR-RES ovarian): 6.51 µM | GI50 (OVCAR-3 ovarian): 3.07 µM | TGI (OVCAR-3 ovarian): 14.7 µM | GI50 (OVCAR-4 ovarian): 1.12 µM | TGI (OVCAR-4 ovarian): 4.72 µM | GI50 (OVCAR-5 ovarian): 2.66 µM | TGI (OVCAR-5 ovarian): 11.9 µM | GI50 (OVCAR-8 ovarian): 0.748 µM | TGI (OVCAR-8 ovarian): 13.3 µM | GI50 (PC-3 prostate): 1.53 µM | TGI (PC-3 prostate): 6.52 µM | GI50 (RPMI-8226 leukemia): 2.1 µM | TGI (RPMI-8226 leukemia): 5.7 µM | GI50 (RXF 393 renal): 1.25 µM | TGI (RXF 393 renal): 3.05 µM | GI50 (SF-268 CNS): 1.28 µM | TGI (SF-268 CNS): 3.55 µM | GI50 (SF-295 CNS): 2 µM | TGI (SF-295 CNS): 6.51 µM | GI50 (SF-539 CNS): 1.89 µM | TGI (SF-539 CNS): 3.88 µM | GI50 (SK-MEL-2 melanoma): 1.73 µM | TGI (SK-MEL-2 melanoma): 3.26 µM | GI50 (SK-MEL-28 melanoma): 2.15 µM | TGI (SK-MEL-28 melanoma): 4.5 µM | GI50 (SK-MEL-5 melanoma): 1.56 µM | TGI (SK-MEL-5 melanoma): 2.9 µM | GI50 (SK-OV-3 ovarian): 2.92 µM | TGI (SK-OV-3 ovarian): 15.5 µM | GI50 (SN12C renal): 1.35 µM | TGI (SN12C renal): 10.8 µM | GI50 (SNB-19 CNS): 1.84 µM | TGI (SNB-19 CNS): 10.7 µM | GI50 (SNB-75 CNS): 1.38 µM | TGI (SNB-75 CNS): 2.7 µM | GI50 (SR leukemia): 0.902 µM | TGI (SR leukemia): 3.14 µM | GI50 (SW-620 colon): 0.629 µM | TGI (SW-620 colon): 4.95 µM | GI50 (T-47D breast): 2.74 µM | TGI (T-47D breast): 9.55 µM | GI50 (TK-10 renal): 5.69 µM | TGI (TK-10 renal): 66.3 µM | GI50 (U251 CNS): 2.21 µM | TGI (U251 CNS): 11.5 µM | GI50 (UACC-257 melanoma): 1.71 µM | TGI (UACC-257 melanoma): 3.26 µM | GI50 (UACC-62 melanoma): 1.74 µM | TGI (UACC-62 melanoma): 3.56 µM | GI50 (UO-31 renal): 1.44 µM | TGI (UO-31 renal): 12.7 µM
